Entries after “also recorded” stand apart in the source; their conditions may differ.
How the values were obtained:
Assay type in all cases: in vivo, C57/BL6 mice
ZIP8-overexpressing mice [1] = experiment: Cartilage destruction in mice with osteoarthritis induced by ZIP8 overexpression (safranin-O staining, modified Mankin score); settings: Ad-ZIP8 mice, three injections; for modified Mankin score (degree of cartilage destruction): intra-articular 0.0075, 0.015, 0.03 mg/kg once a week, vehicle group 2 or higher, also decreased concentration-dependently, FIGS. 2A, 4A, 6A; for loss of the cartilage matrix (safranin-O staining of whole joint and cartilage): intra-articular co-injection 0.0075, 0.015, 0.03 mg/kg once a week, versus vehicle group, FIGS. 1, 3, 5
Experimental: (§1) Osteoarthritis-induced mice were prepared by overexpressing the zinc importer ZIP8 in the cartilage and joint tissues of mice.
(§2) Specifically, the cartilage and joint tissues of about 12-week-old male C57/BL6 mice were injected intra-articularly with a normal control adenovirus (Ad-C) or a ZIP8-expressing adenovirus (Ad-S1c39a8). A vehicle group was treated only with a vehicle without a vector. Each of the adenoviruses was injected at a concentration of 1×10^9 PFU a total of three times (once a week).
(§3) Meanwhile, in order to evaluate the effect of each of the therapeutic agents AVIX-7, MA3001 and MA6004 on the amelioration of osteoarthritis induced by ZIP8 overexpression, AVIX-7, MA3001 or MA6004 was co-injected into the joint when each adenovirus was injected.
(§4) Each of the therapeutic agents was used at doses of 0.0075 mg/kg, 0.015 mg/kg and 0.03 mg/kg mouse body weight. Each therapeutic agent was administered by injection once a week, and the amount of each therapeutic agent administered at each time point was 10 μl. One week after the day of the last injection of a total of three injections, the mice were sacrificed and the degree of cartilage destruction and the degree of occurrence of synovitis were analyzed.
In order to evaluate the therapeutic effect of AVIX-7, MA3001 or MA6004 on osteoarthritis in ZIP8-overexpressing mice, whole joint and cartilage tissues were stained with safranin-O and the degree of cartilage destruction was checked.
In addition, the degree of safranin-O staining (reflecting the degree of cartilage destruction) according to Table 2 below was observed and degraded according to the modified Mankin score (Mankin, Henry J., and Louis Lippiello. JBJS 52.3 (1970): 424-434.), and the grades were quantified graphically. The Mankin score is an index indicating the degree of arthritis and may be determined by the degree of safranin-O staining in mice, and the lower the Mankin score, the closer to normal.

[2] = tested on: mice with osteoarthritis induced by DMM; experiment: Osteoarthritis induced by destabilization of the medial meniscus (DMM): staining, OARSI grade, subchondral bone plate thickness; settings: intra-articular 0.0075, 0.015, 0.03 mg/kg once a week, three injections; for thickness of the subchondral bone plate (SBP): versus vehicle group (significantly increased), FIGS. 8B, 10B, 12B; for inflammation response in whole joint and cartilage tissues (images and OARSI grade): versus vehicle group, FIGS. 7B, 9B, 11B, 8A, 10A, 12A
Experimental: Mice with osteoarthritis induced by destabilization of the medial meniscus (DMM) were prepared. As a control group, a group (sham) whose meniscus was not damaged during surgery was used.
Specifically, osteoarthritis was induced by damaging the menisci of joints of about 12-week-old male C57/BL6 mice, and each therapeutic agent (AVIX-7, MA3001 or MA6004) was injected intra-articularly.
Each of the therapeutic agents was used at doses of 0.0075 mg/kg, 0.015 mg/kg and 0.03 mg/kg mouse body weight. Each therapeutic agent was administered by injection once a week, and the amount of each therapeutic agent administered at each time point was 10 μl. One week after the day of the last injection of a total of three injections, the mice were sacrificed and the effect of each therapeutic agent on the amelioration of osteoarthritis was evaluated.
In order to evaluate the effect of the compounds of the present disclosure on the amelioration of osteoarthritis, mice were subjected to destabilization of the medial meniscus (DMM) to induce osteoarthritis and were treated with AVIX-7, MA3001 or MA6004. In addition, the cartilage and joint tissues were stained with hematoxylin-eosin/safranin-O, and the effect of AVIX-7, MA3001 or MA6004 on the amelioration of osteoarthritis was evaluated pathologically. […] The OARSI grading method is described in Table 4 below.

ZIP8-overexpressing mice [3] = experiment: Synovitis in ZIP8-overexpressing animal model (hematoxylin-eosin/safranin-O staining, synovitis score); settings: Ad-ZIP8 mice, intra-articular 0.0075, 0.015, 0.03 mg/kg once a week, three injections; for score of synovitis: untreated ZIP8 mice 2 or higher, FIGS. 2B, 4B, 6B; for inflammatory response (penetration of inflammatory cells into the synovium): versus vehicle group, FIGS. 1, 3, 5
Experimental: as §1, §2, §3, §4
In order to evaluate the osteoarthritis amelioration effect of each of the therapeutic agents developed in the present disclosure, the ZIP8-overexpressing animal model was treated with AVIX-7, MA3001 or MA6004, and the cartilage and joint tissues of the animal model were stained with hematoxylin-eosin/safranin-O, and the presence or absence of synovitis was checked. The ZIP8-overexpressing animal model was prepared by the method described in Example 1.
In addition, the degree of synovitis was scored according to “Synovitis score: discrimination between chronic low-grade and high-grade synovitis. Histopathology 49, 358-364” described in Table 3 below, and was quantified graphically.

Row | Structure (SMILES) | modified Mankin score (degree of cartilage destruction) (ZIP8-overexpressing mice [1]) | loss of the cartilage matrix (safranin-O staining of whole joint and cartilage) (ZIP8-overexpressing mice [1]) | thickness of the subchondral bone plate (SBP) [2] | inflammation response in whole joint and cartilage tissues (images and OARSI grade) [2] | score of synovitis (ZIP8-overexpressing mice [3]) | inflammatory response (penetration of inflammatory cells into the synovium) (ZIP8-overexpressing mice [3])
1 | O=C(O)CCN1C(=O)/C(=C\c2ccc(-c3ccc(Cl)cc3)o2)SC1=S [AVIX-7, 3-{5-[5-(4-chlorophenyl)-furan-2-ylmethylene]-4-oxo-2-thioxo-thiazolidin-3-yl}-propionic acid] | lower than that of the vehicle group | rescuing the loss of cartilage matrix; also recorded: concentration-dependently rescued | decreased | alleviated | significantly decreased | alleviating synovitis; also recorded: alleviated
2 | CC(C)OC(=O)c1ccc(-c2ccc(/C=C3\SC(=S)N(CCCC(=O)O)C3=O)o2)cc1 [MA3001, 4-(5-((5-(4-(isopropoxycarbonyl)phenyl)furan-2-yl)methylene)-4-oxo-2-thioxothiazolidin-3-yl)butanoic acid] | lower than that of the vehicle group | rescuing the loss of cartilage matrix; also recorded: concentration-dependently rescued | decreased | alleviated | significantly decreased | alleviating synovitis; also recorded: alleviated
3 | O=C(O)CCN1C(=O)SC(Cc2ccc(-c3ccc(Cl)cc3)o2)C1=O (stereo not drawn) [MA6004, 3-(5-((5-(4-chlorophenyl)furan-2-yl)methyl)-2,4-dioxothiazolidin-3-yl)propionic acid] | lower than that of the vehicle group | rescuing the loss of cartilage matrix; also recorded: concentration-dependently rescued | decreased | alleviated | significantly decreased | alleviating synovitis; also recorded: alleviated

Source: patent US20210228548A1, “PHARMACEUTICAL COMPOSITION FOR PREVENTING, ALLEVIATING OR TREATING OSTEOARTHRITIS, CONTAINING RHODANINE DERIVATIVE AS ACTIVE INGREDIENT” (Avixgen Inc., priority 2018, published 2021)
